Reference: patent publication US10076519B2 (CYTOKINETICS, INC., priority 2010, dated 2018)

The compounds below were run on rabbit skeletal myofibrils (fast skeletal myofibrils) (assay: Activation of fast skeletal myofibrils (PUMA assay, PK/LDH-coupled ATPase at pCa25)). Conditions: AC1.4 determined according to the procedure of Example 39; reported as class symbols.
Format: biochemical
Outline: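 Detergent-washed rabbit psoas myofibrils (~90% fast fibres, calcium-regulated) assayed at calcium giving 25% of maximal ATPase rate (pCa25). ADP turnover coupled via pyruvate kinase/lactate dehydrogenase to NADH oxidation, read at 340 nm. Buffer 12 mM PIPES, 2 mM MgCl2, 1 mM DTT, pH 6.8; AC1.4 values derived.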
In the case of `CC(=O)Nc1nc2cc(-c3ccc(NCC(C)(C)c4ccc(F)cc4)nn3)ccc2[nH]1` [N-[6-(6-{[2-(4-fluorophenyl)-2-methylpropyl]amino}pyridazin-3-yl)benzimidazol-2-yl]acetamide], the “Mean AC1.4” value is reported as “A (A=<1 uM)”.
In the case of `NCCNc1n[nH]c2ccc(-c3ccc(NCC4(c5ncccc5F)CCC4)nn3)cc12` [(6-{3-[(2-aminoethyl)amino](1H-indazol-5-yl)}pyridazin-3-yl){[(3-fluoro(2-pyridyl))cyclobutyl]methyl}amine], the “Mean AC1.4” value is reported as “A (A=<1 uM)”.
`Nc1ccc(-c2ccc(NCC3(c4ncccc4F)CCC3)nn2)cc1F` [[6-(4-amino-3-fluorophenyl)pyridazin-3-yl]{[(3-fluoro(2-pyridyl))cyclobutyl]meth-yl}amine] was tested, and the “Mean AC1.4” value was “A (A=<1 uM)”.
With `NC(=O)c1cccc(C2(CNc3ccc(-c4ccc5[nH]ncc5c4)nn3)CCC2)n1` the “Mean AC1.4” value was “B (B=1-10 uM)”.
For `NC(=O)Nc1cccc(-c2ccc(NCC3(c4ncccc4F)CCC3)nn2)c1`, the “Mean AC1.4” value was “A (A=<1 uM)”.
`CCOC(=O)C1(NC(=O)c2ccc(NCC(C)(C)c3ccc(F)cc3)nn2)CC1` [ethyl 1-[(6-{[2-(4-fluorophenyl)-2-methylpropyl]amino}pyridazin-3-yl)carbonylamino]cyclopropane-carboxylate] was tested, and the “Mean AC1.4” value was “D (D=>20 uM)”.
In the case of `CC(C)(CNc1ccc(-c2cccc(C(N)=O)c2)nn1)c1ncccn1` [3-{6-[(2-methyl-2-pyrimidin-2-ylpropyl)amino]pyridazin-3-yl}benzamide], the “Mean AC1.4” value is reported as “D (D=>20 uM)”.
In the case of `CS(=O)(=O)N1CC(CNc2ccc(-c3ccc4[nH]ncc4c3)nn2)(c2ncccc2F)C1` [3-(3-fluoro(2-pyridyl))-3-{[(6-(1H-indazol-5-yl)pyridazin-3-yl)amino]methyl}-1-(methylsulfonyl)azetidine], the “Mean AC1.4” value is reported as “D (D=>20 uM)”.
In the case of `CC(C)(CNc1ccc(-c2cc(F)cc(C(N)=O)c2)nn1)c1ccc(F)cc1` [3-fluoro-5-(6-{[2-(4-fluorophenyl)-2-methylpropyl]amino}pyridazin-3-yl)benzamide], the “Mean AC1.4” value is reported as “B (B=1-10 uM)”.
In the case of `CC(=O)N1CC=C(c2ccc(NCC(C)(C)c3ccc(F)cc3)nn2)CC1` [1-acetyl-4-(6-{[2-(4-fluorophenyl)-2-methylpropyl]amino}pyridazin-3-yl)-1,2,5,6-tetrahydropyridine], the “Mean AC1.4” value is reported as “D (D=>20 uM)”.
For `COC(=O)N1CC(CNc2ccc(-c3ccc4[nH]ncc4c3)nn2)(c2ncccc2F)C1` [methyl 3-(3-fluoro(2-pyridyl))-3-{[(6-(1H-indazol-5-yl)pyridazin-3-yl)amino]methyl}azetidine-carboxylate], the “Mean AC1.4” value was “D (D=>20 uM)”.
`NC(=O)c1ccc(F)c(-c2ccc(NCC3(c4cccc(O)n4)CCC3)nn2)c1` was tested, and the “Mean AC1.4” value was “D (D=>20 uM)”.
`CC(C)(CNc1ccc(-c2ccc3[nH]c(=O)[nH]c3c2)nn1)c1ccccc1` was tested, and the “Mean AC1.4” value was “A (A=<1 uM)”.
`COc1ccc(C2(CNc3ccc(-c4ccc5[nH]ncc5c4)nn3)CCC2)nc1` [(6-(1H-indazol-5-yl)pyridazin-3-yl){[(5-methoxy(2-pyridyl))cyclobutyl]methyl}amine] was tested, and the “Mean AC1.4” value was “B (B=1-10 uM)”.
In the case of `Cc1cc(-c2cccc(C#N)c2)nnc1NCC(C)(C)c1ccc(F)cc1` [3-(6-{[2-(4-fluorophenyl)-2-methylpropyl]amino}-5-methylpyridazin-3-yl)benzenecarbonitrile], the “Mean AC1.4” value is reported as “C (C=10-20 uM)”.
With `N#Cc1cncc(-c2ccc(NCC3(c4ccc(F)cc4)CC3)nn2)c1` [5-[6-({[(4-fluorophenyl)cyclopropyl]meth-yl}amino)pyridazin-3-yl]pyridine-3-carbonitrile] the “Mean AC1.4” value was “B (B=1-10 uM)”.
`NC(=O)c1cccc(-c2ccc(NCCc3ccc(Cl)c(Cl)c3)nn2)c1` was tested, and the “Mean AC1.4” value was “C (C=10-20 uM)”.
In the case of `CC(C)(CNc1ccc(-c2cccnc2)nn1)c1ccc(F)cc1` [[2-(4-fluorophenyl)-2-methylpropyl](6-(3-pyridyl)pyridazin-3-yl)amine], the “Mean AC1.4” value is reported as “B (B=1-10 uM)”.
In the case of `COc1cccc(C(C)(C)CNc2ccc(-c3ccc4[nH]nc(N)c4c3)nn2)c1` [[6-(3-amino(1H-indazol-5-yl))pyridazin-3-yl][2-(3-methoxyphenyl)-2-methylpropyl]amine], the “Mean AC1.4” value is reported as “A (A=<1 uM)”.

Same assay, conditions: median AC1.4 class, procedure of Example 39
With `COc1ccc(-c2ccc(NCC3(c4ncccc4F)CCC3)nn2)cc1C(N)=O` the “Mean AC1.4” value was “B (B=1-10 uM)”.
In the case of `O=C(Nc1ccn[nH]1)c1ccc(NCC2(c3ncccc3F)CCC2)nn1` [[6-({[(3-fluoro(2-pyridyl))cyclobutyl]methyl}ami-no)pyridazin-3-yl]-N-pyrazol-5-ylcarboxamide], the “Mean AC1.4” value is reported as “B (B=1-10 uM)”.
`NC(=O)c1cc(-c2ccc(NCC3(c4ncccc4F)CCC3)nn2)ncn1` [6-[6-({[(3-fluoro-2-pyridyl)cyclobutyl]methyl}ami-no)pyridazin-3-yl]pyrimidine-4-carboxamide] was tested, and the “Mean AC1.4” value was “B (B=1-10 uM)”.
With `CC(=O)N1CC(c2ccc(NCC3(c4ncccc4F)CCC3)nn2)C1` the “Mean AC1.4” value was “D (D=>20 uM)”.
For `CC(=O)Nc1ccc(-c2ccc(NCC3(c4ncccc4F)CCC3)nn2)cc1`, the “Mean AC1.4” value was “A (A=<1 uM)”.
With `COc1nc(-c2ccc(NCC3(c4ncccc4F)CCC3)nn2)sc1C(N)=O` [2-[6-({[(3-fluoro(2-pyridyl))cyclobutyl]methyl}ami-no)pyridazin-3-yl]-4-methoxy-1,3-thiazole-5-carboxamide] the “Mean AC1.4” value was “A (A=<1 uM)”.
`OCc1ncccc1-c1ccc(NCC2(c3ncccc3F)CCC2)nn1` was tested, and the “Mean AC1.4” value was “C (C=10-20 uM)”.
With `NC(=O)c1ccc(O)c(-c2ccc(NC[C@]3(c4ncccc4F)C[C@H](F)C3)nn2)c1` [3-[6-({[3-fluoro-1-(3-fluoro(2-pyridyl))cyclobutyl]methyl}ami-no)pyridazin-3-yl]-4-hydroxybenzamide] the “Mean AC1.4” value was “B (B=1-10 uM)”.
`Cc1ncc(-c2ccc(NCC3(c4ncccc4F)CCC3)nn2)cn1` [{[(3-fluoro(2-pyridyl))cyclobutyl]methyl}[6-(2-methylpyrimidin-5-yl)pyridazin-3-yl]amine] was tested, and the “Mean AC1.4” value was “D (D=>20 uM)”.
For `CC(C)(Nc1ccc(-c2cc(C(N)=O)ccc2F)nn1)c1cccc(OC(F)F)n1` [3-[6-({1-[6-(difluoromethoxy)(2-pyridyl)]-isopropyl}amino)pyridazin-3-yl]-4-fluorobenzamide], the “Mean AC1.4” value was “A (A=<1 uM)”.
`OC(O)(c1cnc(-c2ccc(NCC3(c4ncccc4F)CCC3)nn2)s1)C(F)(F)F` [2,2,2-trifluoro-1-{2-[6-({[(3-fluoro(2-pyridyl))cyclobutyl]methyl}ami-no)pyridazin-3-yl](1,3-thiazol-5-yl)}ethane-1,1-diol] was tested, and the “Mean AC1.4” value was “B (B=1-10 uM)”.
With `Fc1ccc(C2(Nc3ccc(-c4cccnc4OCC(F)(F)F)nn3)CCC2)cc1` [[(4-fluorophenyl)cyclobutyl]{6-[2-(2,2,2-trifluoroethoxy)(3-pyridyl)]pyridazin-3-yl}amine] the “Mean AC1.4” value was “B (B=1-10 uM)”.
With `COC(=O)c1ccc(F)c(-c2ccc(NC[C@]3(c4ncccc4F)C[C@H](F)C3)nn2)c1` [methyl 4-fluoro-3-[6-({[3-fluoro-1-(3-fluoro(2-pyridyl))cyclobutyl]methyl}ami-no)pyridazin-3-yl]benzoate] the “Mean AC1.4” value was “B (B=1-10 uM)”.
With `CC(C)(CNc1ccc(-c2ncc(CNC(=O)[C@@H]3CCCN3)s2)nn1)c1ncccc1F` [((2S)pyrrolidin-2-yl)-N-{[2-(6-{[2-(3-fluoro(2-pyridyl))-2-methylpropyl]amino}pyridazin-3-yl)(1,3-thiazol-5-yl)]methyl}carboxamide] the “Mean AC1.4” value was “B (B=1-10 uM)”.

Same assay, conditions: median AC1.4 reported as class; procedure of Example 39
In the case of `CC(C)(Nc1ccc(-c2ncc(CC(N)=O)s2)nn1)c1ncccc1Cl` [2-[2-(6-{[1-(3-chloro(2-pyridyl))-isopropyl]amino}pyridazin-3-yl)-1,3-thiazol-5-yl]acetamide], the “Mean AC1.4” value is reported as “D (D=>20 uM)”.
`OCc1cccc(-c2ccc(NC[C@]3(c4ncccc4F)C[C@H](F)C3)nn2)c1` [{3-[6-({[3-fluoro-1-(3-fluoro(2-pyridyl))cyclobutyl]methyl}ami-no)pyridazin-3-yl]phenyl}methan-1-ol] was tested, and the “Mean AC1.4” value was “B (B=1-10 uM)”.
`CS(=O)(=O)N1CCc2nc(-c3ccc(NCC4(c5ncccc5F)CCC4)nn3)sc2C1` [2-[6-({[(3-fluoro(2-pyridyl))cyclobutyl]methyl}ami-no)pyridazin-3-yl]-5-(methylsulfonyl)-4,5,6,7-tetrahydro-1,3-thiazolo[5,4-c]pyridine] was tested, and the “Mean AC1.4” value was “D (D=>20 uM)”.
For `Cc1cc(C(N)=O)cc(-c2ccc(NC[C@]3(c4ncccc4F)C[C@H](F)C3)nn2)c1` [3-[6-({[3-fluoro-1-(3-fluoro(2-pyridyl))cyclobutyl]methyl}ami-no)pyridazin-3-yl]-5-methylbenzamide], the “Mean AC1.4” value was “B (B=1-10 uM)”.
In the case of `COC(=O)c1cc2cc(-c3ccc(NC[C@]4(c5ncccc5F)C[C@H](F)C4)nn3)ccc2[nH]1` [methyl 5-[6-({[3-fluoro-1-(3-fluoro(2-pyridyl))cyclobutyl]methyl}ami-no)pyridazin-3-yl]indole-2-carboxylate], the “Mean AC1.4” value is reported as “A (A=<1 uM)”.
In the case of `O=c1cc(-c2ccc(NCC3(c4ncccc4F)CCC3)nn2)nc2cc[nH]n12` [5-[6-({[(3-fluoro-2-pyridyl)cyclobutyl]methyl}ami-no)pyridazin-3-yl]-8-hydro-3-pyrazolino[1,5-a]pyrimidin-7-one], the “Mean AC1.4” value is reported as “B (B=1-10 uM)”.
In the case of `Fc1cccnc1C1(CNc2ccc(-c3ncc(CN4CCN(CC(F)(F)F)CC4)s3)nn2)CCC1` [{[(3-fluoro(2-pyridyl))cyclobutyl]methyl}[6-(5-{[4-(2,2,2-trifluoroethyl)piperazinyl]meth-yl}(1,3-thiazol-2-yl))pyridazin-3-yl]amine], the “Mean AC1.4” value is reported as “B (B=1-10 uM)”.
For `CNC(=O)c1cc(-c2ccc(NC[C@]3(c4ncccc4F)C[C@H](F)C3)nn2)ccc1O` [{5-[6-({[3-fluoro-1-(3-fluoro(2-pyridyl))cyclobutyl]methyl}ami-no)pyridazin-3-yl]-2-hydroxyphenyl}-N-methylcarboxamide], the “Mean AC1.4” value was “B (B=1-10 uM)”.
For `O=C(NC1CC1)c1cccc(-c2ccc(NC[C@]3(c4ncccc4F)C[C@H](F)C3)nn2)c1` [N-cyclopropyl{3-[6-({[3-fluoro-1-(3-fluoro(2-pyridyl))cyclobutyl]methyl}ami-no)pyridazin-3-yl]phenyl}carboxamide], the “Mean AC1.4” value was “B (B=1-10 uM)”.
